Test results taken from PMC8111447 (Frontiers in Pharmacology, 2021).

Key:
Assay in all cases: Kinase panel (Eurofins)
Assay type in all cases: biochemical
Conditions in all cases: n = 2; for inhibition at 1 µM: at 1 μmol/L; for IC50: read-out: IC50 kinase inhibition
ErbB2(h) = biological target: T1, ErbB2(h) (Homo sapiens, UniProt P04626)
T1 construct: purchased Eurofins
Excerpt: (§1) These receptors have a methionine gatekeeper in their kinase domains, and are related to hyperglycemia in other clinical trials of EGFR TKI, such as Co-1686.

HIPK4(h) = biological target: T2, HIPK4(h) (Homo sapiens, UniProt Q8NE63)
T2 construct: purchased Eurofins
T2 sequence (Q8NE63 1-616): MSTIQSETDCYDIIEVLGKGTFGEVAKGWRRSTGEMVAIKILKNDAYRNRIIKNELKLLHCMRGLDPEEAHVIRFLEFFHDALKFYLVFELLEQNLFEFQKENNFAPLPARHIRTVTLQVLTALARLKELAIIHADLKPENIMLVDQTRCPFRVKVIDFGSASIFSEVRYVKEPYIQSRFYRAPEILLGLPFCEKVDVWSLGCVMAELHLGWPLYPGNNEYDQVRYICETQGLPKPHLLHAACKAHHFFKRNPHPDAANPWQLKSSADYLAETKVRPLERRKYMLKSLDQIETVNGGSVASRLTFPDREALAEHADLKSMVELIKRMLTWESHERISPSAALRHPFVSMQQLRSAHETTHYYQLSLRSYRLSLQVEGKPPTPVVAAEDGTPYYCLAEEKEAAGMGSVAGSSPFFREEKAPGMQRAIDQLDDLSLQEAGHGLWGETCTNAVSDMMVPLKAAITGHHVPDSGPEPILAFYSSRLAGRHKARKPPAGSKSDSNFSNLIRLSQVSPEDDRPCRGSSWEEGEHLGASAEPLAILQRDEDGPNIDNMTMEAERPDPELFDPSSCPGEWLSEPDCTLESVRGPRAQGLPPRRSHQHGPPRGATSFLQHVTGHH
Excerpt: as §1

Itk(h) = biological target: T3, Itk(h) (Homo sapiens, UniProt Q08881)
T3 construct: purchased Eurofins
T3 sequence (Q08881 1-620): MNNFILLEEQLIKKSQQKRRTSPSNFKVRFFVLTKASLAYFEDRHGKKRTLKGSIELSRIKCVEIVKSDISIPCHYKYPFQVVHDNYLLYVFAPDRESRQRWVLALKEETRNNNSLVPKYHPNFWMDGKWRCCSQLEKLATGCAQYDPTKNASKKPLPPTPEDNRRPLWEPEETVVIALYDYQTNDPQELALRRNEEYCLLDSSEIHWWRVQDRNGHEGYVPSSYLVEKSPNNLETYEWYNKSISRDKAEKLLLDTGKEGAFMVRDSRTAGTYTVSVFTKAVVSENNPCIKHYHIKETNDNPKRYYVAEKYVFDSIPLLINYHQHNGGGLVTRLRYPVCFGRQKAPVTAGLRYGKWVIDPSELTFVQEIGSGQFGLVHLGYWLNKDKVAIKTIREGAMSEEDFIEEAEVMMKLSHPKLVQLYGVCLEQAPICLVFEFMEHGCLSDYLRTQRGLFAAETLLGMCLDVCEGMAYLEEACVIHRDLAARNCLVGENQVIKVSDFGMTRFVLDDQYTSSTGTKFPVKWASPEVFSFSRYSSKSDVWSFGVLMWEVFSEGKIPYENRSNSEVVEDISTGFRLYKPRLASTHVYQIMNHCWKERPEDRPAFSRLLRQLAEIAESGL
Excerpt: as §1

MLCK(h) = biological target: T4, MLCK(h) (Homo sapiens, UniProt Q9H1R3)
T4 construct: purchased Eurofins
Excerpt: as §1

Tec(h) activated = biological target: T5, Tec(h) activated (Homo sapiens, UniProt P42680)
T5 construct: purchased Eurofins
T5 sequence (P42680 1-631): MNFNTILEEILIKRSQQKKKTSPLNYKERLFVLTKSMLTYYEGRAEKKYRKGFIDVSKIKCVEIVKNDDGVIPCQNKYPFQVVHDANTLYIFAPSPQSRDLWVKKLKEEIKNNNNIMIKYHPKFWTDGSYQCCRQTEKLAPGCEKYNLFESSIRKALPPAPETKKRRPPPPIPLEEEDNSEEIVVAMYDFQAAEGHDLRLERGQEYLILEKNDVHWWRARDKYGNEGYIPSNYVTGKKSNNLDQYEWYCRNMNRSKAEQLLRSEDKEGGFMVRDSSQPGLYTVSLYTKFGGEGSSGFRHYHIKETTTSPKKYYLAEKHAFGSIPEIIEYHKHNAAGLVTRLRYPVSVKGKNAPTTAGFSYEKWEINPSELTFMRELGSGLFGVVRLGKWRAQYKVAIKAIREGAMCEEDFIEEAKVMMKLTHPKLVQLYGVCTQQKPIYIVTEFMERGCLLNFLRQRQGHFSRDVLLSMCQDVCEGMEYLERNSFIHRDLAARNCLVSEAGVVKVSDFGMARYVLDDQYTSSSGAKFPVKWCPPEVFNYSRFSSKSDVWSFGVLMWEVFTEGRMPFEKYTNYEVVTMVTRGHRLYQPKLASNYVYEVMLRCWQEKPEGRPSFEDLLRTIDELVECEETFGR
Excerpt: as §1

T1 sequence (P04626 23-1255): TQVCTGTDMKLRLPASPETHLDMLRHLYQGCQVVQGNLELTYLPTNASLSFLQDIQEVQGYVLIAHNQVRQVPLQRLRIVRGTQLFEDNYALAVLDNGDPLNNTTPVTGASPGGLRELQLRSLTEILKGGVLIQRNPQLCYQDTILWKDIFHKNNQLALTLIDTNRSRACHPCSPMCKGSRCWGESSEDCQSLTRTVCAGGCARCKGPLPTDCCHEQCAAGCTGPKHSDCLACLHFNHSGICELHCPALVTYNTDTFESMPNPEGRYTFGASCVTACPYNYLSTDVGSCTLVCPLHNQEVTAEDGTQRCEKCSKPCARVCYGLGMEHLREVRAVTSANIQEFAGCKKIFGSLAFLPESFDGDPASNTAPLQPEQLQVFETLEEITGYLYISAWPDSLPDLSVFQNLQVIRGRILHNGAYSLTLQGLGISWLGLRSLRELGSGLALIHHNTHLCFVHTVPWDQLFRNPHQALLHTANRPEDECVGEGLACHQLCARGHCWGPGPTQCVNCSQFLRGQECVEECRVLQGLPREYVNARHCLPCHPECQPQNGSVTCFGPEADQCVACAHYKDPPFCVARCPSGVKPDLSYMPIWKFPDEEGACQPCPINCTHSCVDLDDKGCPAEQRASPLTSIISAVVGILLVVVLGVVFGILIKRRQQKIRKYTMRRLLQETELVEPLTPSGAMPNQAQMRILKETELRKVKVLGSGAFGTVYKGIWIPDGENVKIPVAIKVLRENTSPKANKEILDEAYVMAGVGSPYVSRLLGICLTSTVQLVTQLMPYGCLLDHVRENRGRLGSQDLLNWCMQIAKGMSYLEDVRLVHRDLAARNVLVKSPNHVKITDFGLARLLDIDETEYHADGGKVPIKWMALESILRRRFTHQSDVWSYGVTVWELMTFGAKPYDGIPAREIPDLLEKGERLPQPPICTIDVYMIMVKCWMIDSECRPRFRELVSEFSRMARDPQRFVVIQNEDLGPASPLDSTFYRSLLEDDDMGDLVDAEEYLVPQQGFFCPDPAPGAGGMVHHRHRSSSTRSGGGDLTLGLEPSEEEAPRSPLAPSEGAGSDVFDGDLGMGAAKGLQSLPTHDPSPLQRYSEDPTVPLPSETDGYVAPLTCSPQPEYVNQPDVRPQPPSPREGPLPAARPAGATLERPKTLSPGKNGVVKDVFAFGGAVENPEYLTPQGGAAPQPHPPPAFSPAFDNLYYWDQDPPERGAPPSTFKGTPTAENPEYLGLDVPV

C=CC(=O)Nc1cc(Nc2nccc(-c3c4n(c5ccccc35)CCCC4)n2)c(OC)cc1N(C)CCNC [Imp3]
inhibition at 1 µM (ErbB2(h)): 83%
IC50 (ErbB2(h)): 197 nM
inhibition at 1 µM (HIPK4(h)): 82%
IC50 (HIPK4(h)): 276 nM
inhibition at 1 µM (Itk(h)): 68%
IC50 (Itk(h)): 825 nM
inhibition at 1 µM (MLCK(h)): 68%
IC50 (MLCK(h)): 597 nM
inhibition at 1 µM (Tec(h) activated): 77%
IC50 (Tec(h) activated): 272 nM

C=CC(=O)Nc1cc(Nc2nccc(-c3c4n(c5ccccc35)CCCC4)n2)c(OC)cc1N(C)CCN(C)C [SH-1028]
inhibition at 1 µM (ErbB2(h)): 72%
IC50 (ErbB2(h)): 55 nM
inhibition at 1 µM (HIPK4(h)): 67%
IC50 (HIPK4(h)): 232 nM
inhibition at 1 µM (Itk(h)): 66%
IC50 (Itk(h)): 320 nM
inhibition at 1 µM (MLCK(h)): 55%
IC50 (MLCK(h)): 400 nM
inhibition at 1 µM (Tec(h) activated): 80%
IC50 (Tec(h) activated): 150 nM
